According to ChEMBL document CHEMBL1201862, “PubChem BioAssay data set” (2004):
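Growth conditions: 96-well plates. Treatment: test compound, 48 hours, 5 concentrations. Analysis: linear interpolation between bracketing concentrations; unreached endpoints set to highest concentration. GI50 marks 50% less growth.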 The source made the active and inactive calls. Cut-off read from the data, not from the text of the source: active = GI50 up to about 1.1 µM and inactive = higher.

Tests used:
Assay in all cases: NCI anticancer screen, dose series, 48 h
COLO 205 = system: COLO 205
HCT-116 = system: HCT-116
IGROV-1 = system: IGROV-1
KM12 = system: KM12
Malme-3M = system: Malme-3M
NCI-H23 = system: NCI-H23
NCI-H460 = system: NCI-H460
RPMI-8226 = system: RPMI-8226
RXF 393 = system: RXF 393
SF-268 = system: SF-268
SK-MEL-28 = system: SK-MEL-28
SK-MEL-5 = system: SK-MEL-5
SK-OV-3 = system: SK-OV-3
SNB-19 = system: SNB-19
U-251 = system: U-251
UACC-257 = system: UACC-257
UACC-62 = system: UACC-62
UO-31 = system: UO-31

Measured: GI50

CCOC(=O)C1=C(Nc2ccccc2)OC/C1=N\NC(=O)Cc1ccccc1
inactive: COLO 205 > 50 µM | HCT-116 > 50 µM | IGROV-1 > 50 µM | KM12 > 50 µM | Malme-3M > 50 µM | NCI-H23 > 50 µM | NCI-H460 > 50 µM | RPMI-8226 > 50 µM | RXF 393 > 50 µM | SF-268 > 50 µM | SK-MEL-28 > 50 µM | SK-MEL-5 > 50 µM | SK-OV-3 > 50 µM | SNB-19 > 50 µM | U-251 > 50 µM | UACC-257 > 50 µM | UACC-62 > 50 µM | UO-31 > 50 µM

CSc1nc(NC(=O)O)c(N(C(C)=O)C(=O)O)c(=O)n1C
inactive: COLO 205 > 100 µM | HCT-116 > 100 µM | IGROV-1 > 100 µM | KM12 > 100 µM | Malme-3M > 100 µM | NCI-H460 > 100 µM | RPMI-8226 > 100 µM | RXF 393 > 100 µM | SF-268 > 100 µM | SK-MEL-28 > 100 µM | SK-MEL-5 > 100 µM | SNB-19 > 100 µM | U-251 > 100 µM | UACC-257 > 100 µM | UACC-62 > 100 µM | UO-31 > 100 µM

Cc1cc(C(C)(C)C)cc(Cc2cc(C(C)(C)C)cc(Cc3cc(C(C)(C)C)cc(C)c3O)c2O)c1O
inactive: COLO 205 16.2 µM | HCT-116 3.13 µM | IGROV-1 11.3 µM | KM12 9.66 µM | Malme-3M 10.7 µM | NCI-H23 10 µM | NCI-H460 10.1 µM | RPMI-8226 2.47 µM | RXF 393 2.19 µM | SF-268 2.89 µM | SK-MEL-5 10 µM | SK-OV-3 14.1 µM | SNB-19 13 µM | U-251 4.07 µM | UACC-257 8.45 µM | UACC-62 6.84 µM | UO-31 13.2 µM

CCCCN(CCCC)C(=O)C(=O)C(C#N)c1ccc(C)cc1 (stereo unspecified)
inactive: HCT-116 > 100 µM | IGROV-1 > 100 µM | KM12 > 100 µM | Malme-3M > 100 µM | NCI-H23 > 100 µM | NCI-H460 > 100 µM | RPMI-8226 > 100 µM | RXF 393 > 100 µM | SF-268 > 100 µM | SK-MEL-28 > 100 µM | SK-MEL-5 > 100 µM | SNB-19 > 100 µM | U-251 > 100 µM | UACC-257 > 100 µM | UACC-62 > 100 µM | UO-31 > 100 µM

CC1(C)c2ccccc2C(C)(C)C(C(=O)Nc2ccccc2)C1C(=O)O (stereo unspecified)
inactive: COLO 205 > 100 µM | HCT-116 95.1 µM | KM12 > 100 µM | Malme-3M > 100 µM | NCI-H23 > 100 µM | RPMI-8226 > 100 µM | RXF 393 > 100 µM | SF-268 > 100 µM | SK-MEL-28 > 100 µM | SK-MEL-5 > 100 µM | SK-OV-3 > 100 µM | SNB-19 > 100 µM | U-251 > 100 µM | UACC-257 > 100 µM | UACC-62 > 100 µM | UO-31 > 100 µM

CC1(C)N=C(C2CCCN2C(=O)OCc2ccccc2)OC1=O (stereo unspecified)
inactive: COLO 205 > 100 µM | HCT-116 > 100 µM | IGROV-1 > 100 µM | KM12 > 100 µM | Malme-3M > 100 µM | NCI-H23 > 100 µM | NCI-H460 > 100 µM | RPMI-8226 > 100 µM | RXF 393 30 µM | SF-268 > 100 µM | SK-MEL-28 > 100 µM | SK-MEL-5 > 100 µM | SK-OV-3 > 100 µM | SNB-19 > 100 µM | U-251 > 100 µM | UACC-257 > 100 µM | UACC-62 > 100 µM | UO-31 > 100 µM

COC(=O)/C(C#N)=C1\CCC(O)N1C (stereo unspecified)
inactive: HCT-116 > 100 µM | IGROV-1 > 100 µM | KM12 > 100 µM | Malme-3M > 100 µM | NCI-H23 > 100 µM | NCI-H460 > 100 µM | RPMI-8226 > 100 µM | RXF 393 > 100 µM | SF-268 > 100 µM | SK-MEL-28 > 100 µM | SK-OV-3 > 100 µM | SNB-19 > 100 µM | U-251 > 100 µM | UACC-257 > 100 µM | UACC-62 > 100 µM | UO-31 > 100 µM

N=S(c1ccccc1[N+](=O)[O-])c1ccccc1[N+](=O)[O-]
inactive: COLO 205 1.95 µM | HCT-116 1.5 µM | IGROV-1 2.34 µM | KM12 6.65 µM | Malme-3M 3.26 µM | NCI-H23 5.26 µM | RPMI-8226 2.08 µM | RXF 393 4.06 µM | SF-268 2.37 µM | SK-MEL-28 3.7 µM | SK-MEL-5 3.2 µM | SK-OV-3 6.27 µM | SNB-19 8.07 µM | UACC-257 2.54 µM | UACC-62 4.34 µM | UO-31 3.08 µM

C=CCNC1=NC(=O)C(CC(=O)Nc2cccc(Cl)c2)S1 (stereo unspecified)
inactive: COLO 205 > 100 µM | IGROV-1 > 100 µM | KM12 > 100 µM | Malme-3M > 100 µM | NCI-H23 > 100 µM | NCI-H460 > 100 µM | RPMI-8226 > 100 µM | RXF 393 > 100 µM | SF-268 > 100 µM | SK-MEL-28 > 100 µM | SK-MEL-5 > 100 µM | SK-OV-3 > 100 µM | SNB-19 > 100 µM | U-251 > 100 µM | UACC-257 > 100 µM | UACC-62 > 100 µM | UO-31 > 100 µM

CC1Cc2c(N)nc(N3CCOCC3)nc2NC1=O (stereo unspecified)
inactive: COLO 205 > 100 µM | HCT-116 > 100 µM | IGROV-1 > 100 µM | KM12 > 100 µM | Malme-3M > 100 µM | NCI-H23 > 100 µM | NCI-H460 > 100 µM | RPMI-8226 > 100 µM | RXF 393 > 100 µM | SK-MEL-28 > 100 µM | SK-MEL-5 > 100 µM | SK-OV-3 > 100 µM | SNB-19 > 100 µM | U-251 > 100 µM | UACC-257 > 100 µM | UACC-62 > 100 µM | UO-31 > 100 µM

COc1ccc(NC(=O)CC(=O)n2nc(C)c(/N=N/c3ccccc3C(=O)O)c2C)cc1
inactive: COLO 205 > 100 µM | HCT-116 > 100 µM | IGROV-1 > 100 µM | KM12 > 100 µM | Malme-3M > 100 µM | NCI-H23 > 100 µM | NCI-H460 > 100 µM | RPMI-8226 > 100 µM | SF-268 > 100 µM | SK-MEL-28 > 100 µM | SK-MEL-5 > 100 µM | SK-OV-3 40.3 µM | SNB-19 80.7 µM | U-251 > 100 µM | UACC-257 > 100 µM | UACC-62 > 100 µM | UO-31 > 100 µM

CC(=O)O[C@H]1CC[C@@]2(C)C(=CC[C@@H]3C2CC[C@]2(C)C(=O)NC(=O)CC32)C1 (stereo partly specified)
inactive: COLO 205 > 100 µM | HCT-116 > 100 µM | IGROV-1 > 100 µM | KM12 > 100 µM | Malme-3M > 100 µM | NCI-H23 > 100 µM | NCI-H460 > 100 µM | RXF 393 35.5 µM | SF-268 > 100 µM | SK-MEL-28 53.5 µM | SK-MEL-5 > 100 µM | SK-OV-3 > 100 µM | SNB-19 > 100 µM | U-251 58.6 µM | UACC-257 > 100 µM | UACC-62 > 100 µM | UO-31 > 100 µM

Cc1ccc(C2=C(c3ccccc3)C(Br)(c3ccc(C)cc3)C(c3ccccc3)=C2c2ccc(C)cc2)cc1
inactive: COLO 205 > 100 µM | HCT-116 > 100 µM | IGROV-1 > 100 µM | KM12 > 100 µM | Malme-3M > 100 µM | NCI-H23 > 100 µM | NCI-H460 > 100 µM | RPMI-8226 > 100 µM | SF-268 > 100 µM | SK-MEL-28 > 100 µM | SK-MEL-5 > 100 µM | SK-OV-3 > 100 µM | SNB-19 > 100 µM | U-251 > 100 µM | UACC-257 > 100 µM | UACC-62 > 100 µM

O=c1cccc2n1C[C@H]1CNC[C@H]2C1
inactive: COLO 205 > 100 µM | HCT-116 > 100 µM | KM12 > 100 µM | Malme-3M > 100 µM | NCI-H23 > 100 µM | NCI-H460 > 100 µM | RPMI-8226 > 100 µM | RXF 393 47 µM | SF-268 > 100 µM | SK-MEL-28 > 100 µM | SK-MEL-5 > 100 µM | SK-OV-3 > 100 µM | SNB-19 > 100 µM | U-251 > 100 µM | UACC-257 > 100 µM | UACC-62 > 100 µM | UO-31 > 100 µM

COC(=O)C1=C2CCC(=O)[C@@]2(C)C(OC(C)=O)C=CC1 (stereo partly specified)
inactive: HCT-116 24.5 µM | IGROV-1 > 100 µM | KM12 > 100 µM | Malme-3M > 100 µM | NCI-H23 76.9 µM | NCI-H460 > 100 µM | RPMI-8226 34.6 µM | RXF 393 > 100 µM | SK-MEL-28 > 100 µM | SK-MEL-5 > 100 µM | SK-OV-3 > 100 µM | U-251 59.6 µM | UACC-257 40.5 µM | UACC-62 76.6 µM | UO-31 > 100 µM

CCCCc1ccc(-n2c3nc(=O)n(C)c(=O)c-3nc3ccccc32)cc1
inactive: COLO 205 3.09 µM | HCT-116 12.3 µM | IGROV-1 13.6 µM | KM12 11.2 µM | Malme-3M 7.6 µM | NCI-H23 2.37 µM | NCI-H460 4.03 µM | RPMI-8226 13.7 µM | RXF 393 18.4 µM | SF-268 10.1 µM | SK-MEL-5 1.52 µM | SK-OV-3 37.7 µM | SNB-19 8.24 µM | U-251 10.6 µM | UACC-257 4.01 µM | UACC-62 1.77 µM | UO-31 12.5 µM
